Results on one sequence are retold here after patent US8003348B2, “Method for the mass expression of an antimicrobial peptide by co-expression of a basic antimicrobial peptide and an acidic peptide using a translational coupling system” (Korea Advanced Institute of Science and Technology, priority 2007, dated 2011).

The test in a line: antimicrobial activity of the recombinant antimicrobial peptide. The format is cell-based. As to conditions: recombinant histonin II purified from E. coli BL21(DE3)/pmIF3H, compared with naturally-occurring antimicrobial peptide.

Turning to “RAGLQFPVGRLLRRLLRRLLR (histonin II peptide) [recombinant antimicrobial peptide]”, the antimicrobial activity entry is “substantially the same antimicrobial activity as a naturally-occurring antimicrobial peptide”.
